From patent US11999727B2 (Tango Therapeutics, Inc., priority 2020, dated 2024)

Assays:
PRMT5 [1] = biological target: T1, PRMT5 (Homo sapiens, UniProt O14744); test: PRMT5 biochemical IC50 assay with MTA as cofactor; settings: PRMT5, MTA as cofactor; read-out: MTA IC50
T1 construct: purchased Viva (custom protein)

[2] = test system: HAP1 MTAP-intact cell line; test: SDMA in-cell western assay, HAP1 MTAP-intact; assay type: cell-based; settings: Homo sapiens, HAP1, SDMA in-cell western, HAP1 MTAP-intact; read-out: MTAP HAP1 intact IC50
Outline: (§1)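 MTAP-null vs endogenous-MTAP HAP1 isogenic cells; in-cell western SDMA readout; IC50 per line.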

PRMT5 [3] = biological target: T1, PRMT5; test: PRMT5 biochemical IC50 assay with SAM as cofactor; settings: PRMT5, SAM as cofactor; read-out: SAM IC50
PRMT5 [4] = biological target: T1, PRMT5; test: PRMT5 biochemical IC50 assay with no cofactor; settings: PRMT5, no cofactor; read-out: No Cofactor/rel IC50
Description: Table 1 indicates IC50 values (μM) against PRMT5 for exemplary compounds in the presence of SAM as cofactor, with no cofactor, and with MTA as cofactor, respectively (columns 4-6). […] Ki values can be calculated from the IC50 values as described in the Examples section. As detailed in the Examples section, for the assay performed in the presence of SAM, IC50=Ki×1.5 (Ki=IC50/1.5).

[5] = test system: HAP1 MTAP-deleted cell line; test: SDMA in-cell western assay, HAP1 MTAP-deleted; assay type: cell-based; settings: for IC50: Homo sapiens, HAP1, SDMA in-cell western, HAP1 MTAP-deleted, read-out: HAP 1 MTAP deleted IC50; for MTAP intact/deleted ratio: IC50 ratio HAP1 MTAP-intact / HAP1 MTAP-deleted, SDMA in-cell western
Outline: as §1

[6] = test system: HAP1 MTAP-deleted cell line; test: Viability assay, MTAP-deleted cell line; assay type: cell-based; settings: Homo sapiens, HAP1, viability assay, MTAP-deleted cell line; read-out: HAP1 MTAP deleted viability
Description: Table 1 additionally indicates IC50 values in a viability assay for the MTAP-deleted cell line (column 10), indicating the effect of treatment with compound on cell survival.

T1 sequence (O14744 whole entry): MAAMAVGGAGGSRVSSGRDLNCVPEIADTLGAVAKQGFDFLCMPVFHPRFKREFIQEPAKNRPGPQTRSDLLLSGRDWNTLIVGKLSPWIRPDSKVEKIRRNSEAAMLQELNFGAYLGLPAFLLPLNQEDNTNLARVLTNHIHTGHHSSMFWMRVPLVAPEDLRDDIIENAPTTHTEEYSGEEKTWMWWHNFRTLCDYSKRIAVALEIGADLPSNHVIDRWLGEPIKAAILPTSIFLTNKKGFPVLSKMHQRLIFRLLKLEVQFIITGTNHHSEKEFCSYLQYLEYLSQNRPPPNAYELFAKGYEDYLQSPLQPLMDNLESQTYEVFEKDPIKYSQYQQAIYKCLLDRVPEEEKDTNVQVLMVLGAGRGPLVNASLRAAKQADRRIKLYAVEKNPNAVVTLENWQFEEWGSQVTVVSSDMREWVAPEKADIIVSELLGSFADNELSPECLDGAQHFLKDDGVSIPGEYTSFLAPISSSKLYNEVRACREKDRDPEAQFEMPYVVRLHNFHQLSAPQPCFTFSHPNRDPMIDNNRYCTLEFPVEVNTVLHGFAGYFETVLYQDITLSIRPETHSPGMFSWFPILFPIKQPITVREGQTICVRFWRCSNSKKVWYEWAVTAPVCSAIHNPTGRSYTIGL
T1 sequence (Q9BQA1 whole entry partner): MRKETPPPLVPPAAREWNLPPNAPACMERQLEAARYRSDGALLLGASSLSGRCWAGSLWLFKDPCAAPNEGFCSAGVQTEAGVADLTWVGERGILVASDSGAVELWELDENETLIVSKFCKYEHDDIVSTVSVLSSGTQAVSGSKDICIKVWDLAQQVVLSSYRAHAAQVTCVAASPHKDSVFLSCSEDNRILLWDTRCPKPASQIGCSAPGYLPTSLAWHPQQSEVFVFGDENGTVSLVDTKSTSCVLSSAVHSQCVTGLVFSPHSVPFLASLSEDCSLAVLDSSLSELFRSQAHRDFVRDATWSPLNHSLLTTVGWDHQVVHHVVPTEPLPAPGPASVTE

| SMILES | IC50 (PRMT5 [1]) | IC50 [2] | IC50 (PRMT5 [3]) | IC50 (PRMT5 [4]) | IC50 [5] | MTAP intact/deleted ratio [5] | IC50 [6] |
| --- | --- | --- | --- | --- | --- | --- | --- |
| Cc1ncc(NC(=O)C(=O)N2C[C@@H](C)CC[C@@H]2c2ccc3c(c2)CCC(=O)N3)cc1C(F)F (single isomer, unassigned) [Compound 903] | > 500 nM | > 1000 nM | > 500 nM | > 500 nM | > 1000 nM | B (an IC50 ratio greater than or equal to 3 fold but lower than 10 fold) | > 10 µM |
| COc1ncc(NC(=O)C(=O)N2C[C@@H](C)C(F)(F)C[C@@H]2c2ccc(C)nc2)cc1C(N)=O (single isomer, unassigned) [Compound 908] | < 50 nM | > 1000 nM | 50 to 500 nM | 50 to 500 nM | < 100 nM | A (an IC50 ratio greater than or equal to 10 fold) | 1 to 10 µM |
| COc1ncc(NC(=O)C(=O)N2C[C@@H](C)CC[C@@H]2c2ccc(NC(C)=O)nc2)cc1C(N)=O (single isomer, unassigned) [Compound 910] | > 500 nM | > 1000 nM | > 500 nM | > 500 nM | > 1000 nM | B (an IC50 ratio greater than or equal to 3 fold but lower than 10 fold) | > 10 µM |
| CCc1cc(NC(=O)C(=O)N2C[C@@H](C)CC[C@@H]2c2ccn(-c3cc[nH]n3)n2)cnc1N (single isomer, unassigned) [Compound 913] | > 500 nM | > 1000 nM | > 500 nM | > 500 nM | > 1000 nM | C (an IC50 ratio of less than 3 fold) | > 10 µM |
| COc1ncc(NC(=O)C(=O)N2C[C@@H](C)CC[C@@H]2c2ccc3cnccc3c2)cc1C(N)=O (single isomer, unassigned) [Compound 914] | < 50 nM | 100 to 1000 nM | 50 to 500 nM | < 50 nM | < 100 nM | A (an IC50 ratio greater than or equal to 10 fold) | < 1 µM |
| CC(=O)Nc1ccc([C@H]2CC[C@H](C)CN2C(=O)C(=O)Nc2cnc(N)c(C)c2)cn1 (single isomer, unassigned) [Compound 915] | < 50 nM | 100 to 1000 nM | 50 to 500 nM | < 50 nM | < 100 nM | A (an IC50 ratio greater than or equal to 10 fold) | 1 to 10 µM |
| COc1ncc(NC(=O)C(=O)N2C[C@H](C)CC[C@H]2c2ccc3[nH]c(C)nc3c2)cc1C(N)=O (single isomer, unassigned) [Compound 917] | < 50 nM | > 1000 nM | 50 to 500 nM | < 50 nM | < 100 nM | A (an IC50 ratio greater than or equal to 10 fold) | 1 to 10 µM |
| COc1ncc(NC(=O)C(=O)N2C[C@@H](C)CC[C@@H]2c2cccc3[nH]ncc23)cc1C(N)=O (single isomer, unassigned) [Compound 918] | < 50 nM | > 1000 nM | 50 to 500 nM | 50 to 500 nM | < 100 nM | A (an IC50 ratio greater than or equal to 10 fold) | < 1 µM |
| CCc1cc(NC(=O)C(=O)N2C[C@H](C)CC[C@H]2c2ccc3cnccc3c2)cnc1N (single isomer, unassigned) [Compound 919] | < 50 nM | 100 to 1000 nM | 50 to 500 nM | < 50 nM | < 100 nM | A (an IC50 ratio greater than or equal to 10 fold) | < 1 µM |
| CCc1cc(NC(=O)C(=O)N2C[C@H](C)CC[C@H]2c2ccc(NC(C)=O)nc2)cnc1N (single isomer, unassigned) [Compound 921] | > 500 nM | > 1000 nM | > 500 nM | > 500 nM | > 1000 nM | B (an IC50 ratio greater than or equal to 3 fold but lower than 10 fold) | > 10 µM |
| COc1ncc(NC(=O)C(=O)N2C[C@@H](C)CC[C@@H]2c2ccc3[nH]c(C)nc3c2)cc1C(N)=O (single isomer, unassigned) [Compound 924] | > 500 nM | > 1000 nM | > 500 nM | > 500 nM | > 1000 nM | B (an IC50 ratio greater than or equal to 3 fold but lower than 10 fold) | > 10 µM |
| CCc1cc(NC(=O)C(=O)N2C[C@@H](C)CC[C@@H]2c2ccc(NC(C)=O)nc2)cnc1N (single isomer, unassigned) [Compound 925] | < 50 nM | 100 to 1000 nM | 50 to 500 nM | < 50 nM | < 100 nM | A (an IC50 ratio greater than or equal to 10 fold) | < 1 µM |
| COc1ncc(NC(=O)C(=O)N2C[C@H](C)CC[C@H]2c2cccc3[nH]ncc23)cc1C(N)=O (single isomer, unassigned) [Compound 926] | > 500 nM | > 1000 nM | > 500 nM | > 500 nM | > 1000 nM | C (an IC50 ratio of less than 3 fold) | > 10 µM |
| CC(=O)Nc1ccc([C@@H]2CC[C@@H](C)CN2C(=O)C(=O)Nc2cnc(N)c(C)c2)cn1 (single isomer, unassigned) [Compound 927] | > 500 nM | > 1000 nM | > 500 nM | > 500 nM | > 1000 nM | C (an IC50 ratio of less than 3 fold) | > 10 µM |
| CCc1cc(NC(=O)C(=O)N2C[C@@H](C)CC[C@@H]2c2cccc3[nH]ncc23)cnc1N (single isomer, unassigned) [Compound 928] | < 50 nM | > 1000 nM | 50 to 500 nM | < 50 nM | < 100 nM | A (an IC50 ratio greater than or equal to 10 fold) | < 1 µM |
| CCc1cc(NC(=O)C(=O)N2C[C@@H](C)CC[C@@H]2c2ccc3cnccc3c2)cnc1N (single isomer, unassigned) [Compound 929] | > 500 nM | > 1000 nM | > 500 nM | > 500 nM | 100 to 1000 nM | A (an IC50 ratio greater than or equal to 10 fold) | 1 to 10 µM |
| COc1ncc(NC(=O)C(=O)N2C[C@H](C)CC[C@H]2c2ccc(NC(C)=O)nc2)cc1C(N)=O (single isomer, unassigned) [Compound 930] | < 50 nM | > 1000 nM | 50 to 500 nM | 50 to 500 nM | < 100 nM | A (an IC50 ratio greater than or equal to 10 fold) | 1 to 10 µM |
| CCc1cc(NC(=O)C(=O)N2C[C@H](C)CC[C@H]2c2ccn(-c3cc[nH]n3)n2)cnc1N (single isomer, unassigned) [Compound 931] | < 50 nM | 100 to 1000 nM | 50 to 500 nM | 50 to 500 nM | < 100 nM | A (an IC50 ratio greater than or equal to 10 fold) | < 1 µM |
| COc1ncc(NC(=O)C(=O)N2C[C@H](C)CC[C@H]2c2ccc3cnccc3c2)cc1C(N)=O (single isomer, unassigned) [Compound 933] | > 500 nM | > 1000 nM | > 500 nM | > 500 nM | > 1000 nM | B (an IC50 ratio greater than or equal to 3 fold but lower than 10 fold) | > 10 µM |
